The first assay concerns HBsAg. Kind of assay: HBsAg assay. Type of assay: cell-based, hepatitis B virus. The settings on record: Hepatitis B virus, HepG2.2.15, 144 h, read-out: sAg EC50, μM, HepG2.2.15 cells, day 6. The protocol: Inhibition of HBsAg was determined in HepG2.2.15 cells. Cells were maintained in culture medium containing 10% fetal calf serum, […], Glutamine, penicillin/streptomycin. Cells were seeded in 96-well collagen-coated plate at a density of 30,000 cells/well. Serially diluted compounds were added to cells next day at the final DMSO concentration of 0.5%. Cells were incubated with compounds for 2-3 days, after which medium was removed. Fresh medium containing compounds was added to cells for additional 3-4 days. At day 6 after exposure of compounds, supernatant was collected, the HBsAg immunoassay (microplate-based chemiluminescence immunoassay kits, CLIA, Autobio Diagnosics Co., Zhengzhou, China, Catalog # CL0310-2) was used to determine the level of HBsAg according to manufactory instruction. Dose-response curves were generated and the EC50 value (effective concentrations that achieved 50% inhibitory effect) were determined using XLfit software. In addition, cells were seeded at a density of 5,000 cells/well for determination of cell viability in the presence and absence of compounds by using CellTiter-Glo reagent (Promega). Tables 1-3 show EC50 values obtained by the HBsAg assay for selected compounds.
In the case of `COc1cc2c(cc1Cl)-c1cc(=O)c(C(=O)O)cn1[C@H](C(C)C)CO2` (single isomer, unassigned) [Example 3], the EC50 (in general, the midpoint of the concentration-response curve) turned out to be 0.032 µM. The same measure, in the same setting: with `COc1cc2c(cc1Cl)-c1cc(=O)c(C(=O)O)cn1[C@@H](C(C)C)CO2` (single isomer, unassigned) [Example 4] the figure was 3.4 µM; with `COc1cc2c(cc1Cl)-c1cc(=O)c(C(=O)O)cn1[C@@H](CC(C)C)CO2` (single isomer, unassigned) [Example 6], 3.8 µM; with `COc1cc2c(cc1Cl)-c1cc(=O)c(C(=O)O)cn1[C@H](CC(C)C)CO2` (single isomer, unassigned) [Example 7], 0.61 µM. The same measure, in the same setting: with `COCCCOc1cc2c(nc1OC)-c1cc(=O)c(C(=O)O)cn1[C@@H](C(C)C)C2` (single isomer, unassigned) [Example 21] the figure was 0.53 µM; with `COCCOc1cc2c(cc1Cl)-c1cc(=O)c(C(=O)O)cn1[C@H](C(C)C)CO2` (single isomer, unassigned) [Example 30], 0.053 µM; with `COCCOc1cc2c(cc1Cl)-c1cc(=O)c(C(=O)O)cn1[C@@H](C(C)C)CO2` (single isomer, unassigned) [Example 31], 0.8 µM. Still for that read-out and setting: with `COc1cc2c(cc1Cl)-c1cc(=O)c(C(=O)O)cn1C(CC(C)C)CO2` (stereo not shown) [Example 5, 2-Chloro-7-isobutyl-3-methoxy-11-oxo-6,7-dihydro-11H-benzo[f]pyrido[1,2-d][1,4]oxazepine-10-carboxylic acid] the figure was 0.91 µM. With `CCC1COc2cc(OC)c(Cl)cc2-c2cc(=O)c(C(=O)O)cn21` (stereo not shown) [Example 8, 2-Chloro-7-ethyl-3-methoxy-11-oxo-6,7-dihydro-11H-benzo[f]pyrido[1,2-d][1,4]oxazepine-10-carboxylic acid], the EC50 amounted to 0.42 µM. Same read-out and setting: for `COc1cc2c(cc1Cl)-c1cc(=O)c(C(=O)O)cn1C(CO)CO2` (stereo not shown) [Example 9] the value was 8.6 µM; for `COc1cc2c(cc1Cl)-c1cc(=O)c(C(=O)O)cn1C(C1CCC1)CO2` (stereo not shown) [Example 10, 2-Chloro-7-cyclobutyl-3-methoxy-11-oxo-6,7-dihydro-11H-benzo[f]pyrido[1,2-d][1,4]oxazepine-10-carboxylic acid], 0.24 µM; for `COc1cc2c(cc1Cl)-c1cc(=O)c(C(=O)O)cn1C(COC(C)C)CO2` (stereo not shown) [Example 11, 2-Chloro-7-(isopropoxymethyl)-3-methoxy-11-oxo-6,7-dihydro-11H-benzo[f]pyrido[1,2-d][1,4]oxazepine-10-carboxylic acid], 12 µM.

In the case of `COc1cc2c(cc1Cl)-c1cc(=O)c(C(=O)O)cn1CC(C(C)(C)C)O2` (stereo not shown) [Example 12, 6-(Tert-butyl)-2-chloro-3-methoxy-11-oxo-6,7-dihydro-11H-benzo[f]pyrido[1,2-d][1,4]oxazepine-10-carboxylic acid], the EC50 was 47 µM.

In the case of `COc1cc2c(cc1Cl)-c1cc(=O)c(C(=O)O)cn1C1CCC1O2` (stereo not shown) [Example 13, 11-Chloro-10-methoxy-2-oxo-5a,6,7,7a-tetrahydro-2H-benzo[f]cyclobuta[b]pyrido[1,2-d][1,4]oxazepine-3-carboxylic acid], the EC50 stood at 1.8 µM.

In the case of `COc1cc2c(cc1Cl)-c1cc(=O)c(C(=O)O)cn1C1CCCC1O2` (stereo not shown) [Example 14, 12-Chloro-11-methoxy-2-oxo-5a,7,8,8a-tetrahydro-2H,6H-benzo[f]cyclopenta[b]pyrido[1,2-d][1,4]oxazepine-3-carboxylic acid], the EC50 came out at 0.56 µM. Turning to `COc1cc2c(cc1F)-c1cc(=O)c(C(=O)O)cn1C(C(C)C)CO2` (stereo not shown) [Example 15, 2-Fluoro-7-isopropyl-3-methoxy-11-oxo-6,7-dihydro-11H-benzo[f]pyrido[1,2-d][1,4]oxazepine-10-carboxylic acid], the EC50 was found to be 0.9 µM. With `COc1ccc2c(c1)OCC(C(C)C)n1cc(C(=O)O)c(=O)cc1-2` (stereo not shown) [Example 16, 7-Isopropyl-3-methoxy-11-oxo-6,7-dihydro-11H-benzo[f]pyrido[1,2-d][1,4]oxazepine-10-carboxylic acid], the EC50 was determined as 3.5 µM.

The same assay, now with this note: read-out: sAg EC50; HepG2.2.15 cells, day 6.
On to `COc1cc2c(nc1OC)-c1cc(=O)c(C(=O)O)cn1C(C(C)C)C2` (single isomer, unassigned) [Example 24, 6-Isopropyl-2,3-dimethoxy-10-oxo-5,10-dihydro-6H-pyrido[1,2-h][1,7]naphthyridine-9-carboxylic acid], for which the concentration giving a half-maximal response (EC50) came out at 0.25 µM. The same measure, in the same setting: for `COc1cc2c(nc1OC)-c1cc(=O)c(C(=O)O)cn1C(C(C)C)C2` (single isomer, unassigned) [Example 25, 6-Isopropyl-2,3-dimethoxy-10-oxo-5,10-dihydro-6H-pyrido[1,2-h][1,7]naphthyridine-9-carboxylic acid] the value was 0.007 µM; for `COCCCOc1cc2c(nc1Cl)-c1cc(=O)c(C(=O)O)cn1C1C(CCC1(C)C)O2` (single isomer, unassigned) [Example 82, 6-Chloro-7-(3-methoxypropoxy)-12,12-dimethyl-3-oxo-9a,11,12,12a-tetrahydro-3H,10H-cyclopenta[b]dipyrido[1,2-d:2′,3′-f][1,4]oxazepine-2-carboxylic acid], 0.008 µM. As for `COCCCOc1cc2c(nc1Cl)-c1cc(=O)c(C(=O)O)cn1C1C(CCC1(C)C)O2` (single isomer, unassigned) [Example 83, 6-Chloro-7-(3-methoxypropoxy)-12,12-dimethyl-3-oxo-9a,11,12,12a-tetrahydro-3H,10H-cyclopenta[b]dipyrido[1,2-d:2′,3′-f][1,4]oxazepine-2-carboxylic acid], the EC50 amounted to 1 µM. As for `CC(C)(C)C1Cc2cc3c(cc2-c2cc(=O)c(C(=O)O)cn21)OCCCO3` (single isomer, unassigned) [Example 91, 6-(Tert-butyl)-2-oxo-6,7,11,12-tetrahydro-2H,10H-[1,4]dioxepino[2,3-g]pyrido[2,1-a]isoquinoline-3-carboxylic acid], the EC50 is 0.94 µM. Consider `CC(C)(C)C1Cc2cc3c(cc2-c2cc(=O)c(C(=O)O)cn21)OCCCO3` (single isomer, unassigned) [Example 92, 6-(Tert-butyl)-2-oxo-6,7,11,12-tetrahydro-2H,10H-[1,4]dioxepino[2,3-g]pyrido[2,1-a]isoquinoline-3-carboxylic acid], for which the EC50 came out at 0.011 µM. Take `CC(C)(C)C1Cc2cc3c(cc2-c2cc(=O)c(C(=O)O)cn21)OCC1(COC1)CO3` (single isomer, unassigned) [Example 94, 6′-(Tert-butyl)-2′-oxo-6′,7′-dihydro-2′H,10′H,12′H-spiro[oxetane-3,11′-[1,4]dioxepino[2,3-g]pyrido[2,1-a]isoquinoline]-3′-carboxylic acid]: the EC50 turned out to be 2.2 µM. Take `CC(C)(C)C1Cc2cc3c(cc2-c2cc(=O)c(C(=O)O)cn21)OCC1(COC1)CO3` (single isomer, unassigned) [Example 95, 6′-(Tert-butyl)-2′-oxo-6′,7′-dihydro-2′H,10′H,12′H-spiro[oxetane-3,11′-[1,4]dioxepino[2,3-g]pyrido[2,1-a]isoquinoline]-3′-carboxylic acid]: the EC50 is 0.08 µM.

With `COCCCOc1cc2c(nc1OC)-c1cc(=O)c(C(=O)O)cn1C(C)(C(C)C)C2` (single isomer, unassigned) [Example 156, 6-Isopropyl-2-methoxy-3-(3-methoxypropoxy)-6-methyl-10-oxo-5,10-dihydro-6H-pyrido[1,2-h][1,7]naphthyridine-9-carboxylic acid], the EC50 is 0.001 µM. As for `COCCCOc1cc2c(nc1OC)-c1cc(=O)c(C(=O)O)cn1C(C)(C(C)C)C2` (single isomer, unassigned) [Example 157, 6-Isopropyl-2-methoxy-3-(3-methoxypropoxy)-6-methyl-10-oxo-5,10-dihydro-6H-pyrido[1,2-h][1,7]naphthyridine-9-carboxylic acid], the EC50 turned out to be 0.11 µM. For the compound `COCCCOc1cc2c(nc1OC)-c1cc(=O)c(C(=O)O)cn1C(C)(C(C)(C)C)C2` (single isomer, unassigned) [Example 159, 6-(Tert-butyl)-2-methoxy-3-(3-methoxypropoxy)-6-methyl-10-oxo-5,10-dihydro-6H-pyrido[1,2-h][1,7]naphthyridine-9-carboxylic acid], the EC50 is 0.0009 µM. On the same count and under the same terms, for `COCCCOc1cc2c(nc1OC)-c1cc(=O)c(C(=O)O)cn1C(C)(C(C)(C)C)C2` (single isomer, unassigned) [Example 160, 6-(Tert-butyl)-2-methoxy-3-(3-methoxypropoxy)-6-methyl-10-oxo-5,10-dihydro-6H-pyrido[1,2-h][1,7]naphthyridine-9-carboxylic acid] the value was 0.038 µM. Same read-out and setting: with `COCCCOc1cc2c([nH]c1=O)-c1cc(=O)c(C(=O)O)cn1C(C(C)C)C2` (single isomer, unassigned) [Example 166, 6-Isopropyl-3-(3-methoxypropoxy)-2,10-dioxo-2,5,6,10-tetrahydro-1H-pyrido[1,2-h][1,7]naphthyridine-9-carboxylic acid] the figure was 0.45 µM; with `COCCCOc1cc2c([nH]c1=O)-c1cc(=O)c(C(=O)O)cn1C(C(C)C)C2` (single isomer, unassigned) [Example 167, 6-Isopropyl-3-(3-methoxypropoxy)-2,10-dioxo-2,5,6,10-tetrahydro-1H-pyrido[1,2-h][1,7]naphthyridine-9-carboxylic acid], 1 µM.
